≈ marks a conversion by molar mass, not a printed value.

Type in all cases: functional
One test relates to Bacillus subtilis. Kind of test: Antibacterial activity against Bacillus subtilis assessed as bacterial growth inhibition by serial dilution method.
For test [1], the system named is Escherichia coli. Kind of test: Antibacterial activity against Escherichia coli assessed as bacterial growth inhibition by serial dilution method.
Test [2] has as its system Staphylococcus epidermidis. Kind of test: Antibacterial activity against Staphylococcus epidermidis assessed as bacterial growth inhibition by serial dilution method.
Test [3] deals with Pseudomonas aeruginosa. Kind of test: Antibacterial activity against Pseudomonas aeruginosa assessed as bacterial growth inhibition by serial dilution method.
Test [4] deals with Pseudomonas aeruginosa. The experiment in a line: Antibacterial activity against Pseudomonas aeruginosa ATCC 27853 assessed as bacterial growth inhibition incubated for 18 to 20 hrs by broth microdilution method. Particulars: time 18-20 hrs. (Broth dilution looks for growth in wells or tubes with falling amounts of substance.)
Test [5] has as its system Staphylococcus aureus. Kind of test: Antibacterial activity against Staphylococcus aureus ATCC 25923 assessed as bacterial growth inhibition incubated for 18 to 20 hrs by broth microdilution method. To be noted: time 18-20 hrs.
Test [6] relates to Escherichia coli. The experiment in a line: Antibacterial activity against Escherichia coli ATCC 25922 assessed as bacterial growth inhibition incubated for 18 to 20 hrs by broth microdilution method. Particulars: time 18-20 hrs.
A further test relates to Klebsiella pneumoniae. Kind of test: Antibacterial activity against Klebsiella pneumoniae ATCC 29665 assessed as bacterial growth inhibition incubated for 18 to 20 hrs by broth microdilution method. To be noted: time 18-20 hrs.
For a further test, the system named is Acinetobacter baumannii. The experiment in a line: Antibacterial activity against Acinetobacter baumannii ATCC 19606 assessed as bacterial growth inhibition incubated for 18 to 20 hrs by broth microdilution method. Particulars: time 18-20 hrs.
In test [7] the test system is Staphylococcus aureus. The experiment in a line: Antibacterial activity against Staphylococcus aureus assessed as bacterial growth inhibition by serial dilution method.
The test system of test [8] is Pseudomonas aeruginosa. Kind of test: Antibacterial activity against Pseudomonas aeruginosa assessed as bacterial growth inhibition.
Test [9] deals with Escherichia coli. The experiment in a line: Antibacterial activity against Escherichia coli assessed as bacterial growth inhibition.
The test system of test [10] is Staphylococcus aureus. Kind of test: Antibacterial activity against methicillin-resistant Staphylococcus aureus clinical isolate 2 assessed as bacterial growth inhibition incubated for 8 hrs by CLSI based broth microdilution method.
Test [11] has as its system Staphylococcus aureus. Kind of test: Antibacterial activity against methicillin-resistant Staphylococcus aureus clinical isolate 1 assessed as bacterial growth inhibition incubated for 8 hrs by CLSI based broth microdilution method.

Broadly, the MIC is the least concentration at which growth counts as inhibited. In the case of `O=C(Nc1ccc(F)cc1)OCc1cn(Cc2ccc(Br)cc2)nn1`, the MIC (in the test with Bacillus subtilis; in the test on Escherichia coli [1]; in test [2]; with Pseudomonas aeruginosa [3]) was 3.12 µg/mL (≈ 7.7 µM) throughout.
Consider `O=C(Cn1cc(CN2CCN(c3cc4c(cc3F)c(=O)c(C(=O)O)cn4C3CC3)CC2)nn1)N[C@@H](Cc1ccccc1C(F)(F)F)C(=O)O`, for which the minimal inhibitory concentration (MIC) with Pseudomonas aeruginosa [4], in the test with Staphylococcus aureus [5], with Escherichia coli [6], with Klebsiella pneumoniae and in the test on Acinetobacter baumannii was 0.25 µg/mL (≈ 0.365 µM) in each case.
Take `NC(=S)N/N=C/c1ccc(OCc2cn(Cc3ccc(Br)cc3)nn2)cc1`: the MIC (with Staphylococcus aureus [7]; with Bacillus subtilis; in the test on Escherichia coli [1]; in test [2]; with Pseudomonas aeruginosa [3]) was 6.25 µg/mL (≈ 14 µM) throughout.
As for `Cc1cc(O)c(C(=O)/C=C/c2ccc(OCc3cn(Cc4ccc(Br)cc4)nn3)cc2)c(=O)o1`, the minimum inhibitory concentration (MIC) in the test on Pseudomonas aeruginosa [8] and in the test on Escherichia coli [9] was 1.56 µg/mL (≈ 2.99 µM) throughout.
Take `O=C(O)c1cn(C2CC2)c2cc(N3CCN(Cc4cn(CC(=O)N5CCC[C@H]5C(=O)O)nn4)CC3)c(F)cc2c1=O`: the minimum inhibitory concentration (MIC) in the test on Pseudomonas aeruginosa [4], in the test on Staphylococcus aureus [5], in the test on Escherichia coli [6], in the test with Klebsiella pneumoniae and with Acinetobacter baumannii was 0.25 µg/mL (≈ 0.44 µM) throughout.
As for `CC(C)C[C@H](C(=O)N[C@@H]1Cc2ccc(c(Cl)c2)Oc2cc3cc(c2O[C@@H]2O[C@H](CO)[C@@H](O)[C@H](O)[C@H]2O[C@H]2C[C@](C)(NCCCCCCCc4ccccc4)[C@H](O)[C@H](C)O2)Oc2ccc(cc2Cl)[C@@H](O)[C@@H]2NC(=O)[C@H](NC(=O)[C@@H]3NC(=O)[C@H](CC(=O)O)NC1=O)c1ccc(O)c(c1)-c1c(O)cc(O)cc1[C@H](C(=O)O)NC2=O)n1cc(COCCOCCOCc2cn([C@H](CC(C)C)C(=O)N[C@@H]3Cc4ccc(c(Cl)c4)Oc4cc5cc(c4O[C@@H]4O[C@H](CO)[C@@H](O)[C@H](O)[C@H]4O[C@H]4C[C@](C)(NCCCCCCCc6ccccc6)[C@H](O)[C@H](C)O4)Oc4ccc(cc4Cl)[C@@H](O)[C@@H]4NC(=O)[C@H](NC(=O)[C@@H]5NC(=O)[C@H](CC(=O)O)NC3=O)c3ccc(O)c(c3)-c3c(O)cc(O)cc3[C@H](C(=O)O)NC4=O)nn2)nn1`, the minimal inhibitory concentration (MIC) with Staphylococcus aureus [10] and in the test with Staphylococcus aureus [11] was 6.25 µg/mL (≈ 1.83 µM) each time.
On to `COc1ccc(C[C@H](NC(=O)Cn2cc(CN3CCN(c4cc5c(cc4F)c(=O)c(C(=O)O)cn5C4CC4)CC3)nn2)C(=O)O)cc1OC`, for which the MIC in the test with Pseudomonas aeruginosa [4], with Staphylococcus aureus [5], in the test with Escherichia coli [6], in the test on Klebsiella pneumoniae and in the test on Acinetobacter baumannii was 0.25 µg/mL (≈ 0.369 µM) throughout.
Turning to `NC(=O)N/N=C/c1ccccc1OCc1cn(-c2ccc(Cl)cc2)nn1`, the minimum inhibitory concentration (MIC) (with Staphylococcus aureus [7]; with Bacillus subtilis; with Escherichia coli [1]; in [2]; with Pseudomonas aeruginosa [3]) was 25 µg/mL (≈ 67.4 µM) in each case.
On to `O=C(/C=C/c1ccc(OCc2cn(Cc3ccccc3Br)nn2)cc1)c1ccc(Br)cc1`, for which the minimum inhibitory concentration (MIC) in the test on Pseudomonas aeruginosa [8] and with Escherichia coli [9] was 6.25 µg/mL (≈ 11.3 µM) throughout.
For the molecule `O=C(Cn1cc(CN2CCN(c3cc4c(cc3F)c(=O)c(C(=O)O)cn4C3CC3)CC2)nn1)N[C@@H](Cc1ccccn1)C(=O)O`, the MIC with Pseudomonas aeruginosa [4], in the test with Staphylococcus aureus [5], in the test on Escherichia coli [6], in the test with Klebsiella pneumoniae and with Acinetobacter baumannii was 0.25 µg/mL (≈ 0.404 µM) in each case.
On to `C#CCOCCOCCOCc1cn([C@H](CC(C)C)C(=O)N[C@@H]2Cc3ccc(c(Cl)c3)Oc3cc4cc(c3O[C@@H]3O[C@H](CO)[C@@H](O)[C@H](O)[C@H]3O[C@H]3C[C@](C)(NCCCCCCCc5ccccc5)[C@H](O)[C@H](C)O3)Oc3ccc(cc3Cl)[C@@H](O)[C@@H]3NC(=O)[C@H](NC(=O)[C@@H]4NC(=O)[C@H](CC(=O)O)NC2=O)c2ccc(O)c(c2)-c2c(O)cc(O)cc2[C@H](C(=O)O)NC3=O)nn1`, for which the MIC turned out to be 12.5 µg/mL (≈ 6.93 µM) with Staphylococcus aureus [10] and 25 µg/mL (≈ 13.9 µM) in the test with Staphylococcus aureus [11].
`O=C(Cn1cc(CN2CCN(c3cc4c(cc3F)c(=O)c(C(=O)O)cn4C3CC3)CC2)nn1)N[C@@H](Cc1ccccc1)C(=O)O`: the minimum inhibitory concentration (MIC) in the test on Pseudomonas aeruginosa [4], with Staphylococcus aureus [5], with Escherichia coli [6], with Klebsiella pneumoniae and in the test with Acinetobacter baumannii was 0.25 µg/mL (≈ 0.405 µM) throughout.
In the case of `O=C(/C=C/c1ccc(OCc2cn(Cc3ccc(Br)cc3)nn2)cc1)c1ccc(Br)cc1`, the MIC in the test with Pseudomonas aeruginosa [8] and with Escherichia coli [9] was 6.25 µg/mL (≈ 11.3 µM) throughout.
For `CC(C)C[C@H](C(=O)N[C@@H]1Cc2ccc(c(Cl)c2)Oc2cc3cc(c2O[C@@H]2O[C@H](CO)[C@@H](O)[C@H](O)[C@H]2O[C@H]2C[C@](C)(NCCCCCCCc4ccccc4)[C@H](O)[C@H](C)O2)Oc2ccc(cc2Cl)[C@@H](O)[C@@H]2NC(=O)[C@H](NC(=O)[C@@H]3NC(=O)[C@H](CC(=O)O)NC1=O)c1ccc(O)c(c1)-c1c(O)cc(O)cc1[C@H](C(=O)O)NC2=O)n1cc(COCCCCCCOCc2cn([C@H](CC(C)C)C(=O)N[C@@H]3Cc4ccc(c(Cl)c4)Oc4cc5cc(c4O[C@@H]4O[C@H](CO)[C@@H](O)[C@H](O)[C@H]4O[C@H]4C[C@](C)(NCCCCCCCc6ccccc6)[C@H](O)[C@H](C)O4)Oc4ccc(cc4Cl)[C@@H](O)[C@@H]4NC(=O)[C@H](NC(=O)[C@@H]5NC(=O)[C@H](CC(=O)O)NC3=O)c3ccc(O)c(c3)-c3c(O)cc(O)cc3[C@H](C(=O)O)NC4=O)nn2)nn1`, the MIC in the test on Staphylococcus aureus [10] and with Staphylococcus aureus [11] was 6.25 µg/mL (≈ 1.82 µM) throughout.
As for `COc1ccc(-n2cc(COc3ccccc3/C=N/NC(N)=O)nn2)cc1`, the MIC (in the test on Staphylococcus aureus [7]; with Bacillus subtilis; with Escherichia coli [1]; in test [2]; in the test with Pseudomonas aeruginosa [3]) was 25 µg/mL (≈ 68.2 µM) in each case.
With `NC(=O)N/N=C/c1ccccc1OCc1cn(-c2ccc(F)cc2)nn1`, the MIC (in the test with Staphylococcus aureus [7]; in the test on Bacillus subtilis; with Escherichia coli [1]; in [2]; with Pseudomonas aeruginosa [3]) was 25 µg/mL (≈ 70.6 µM) each time.
As to `NC(=S)N/N=C/c1cccc(OCc2cn(Cc3ccc(Br)cc3)nn2)c1`, the minimum inhibitory concentration (MIC) (in the test with Staphylococcus aureus [7]; with Bacillus subtilis; with Escherichia coli [1]; in test [2]; with Pseudomonas aeruginosa [3]) was 6.25 µg/mL (≈ 14 µM) throughout.
Consider `O=C(Cn1cc(CN2CCN(c3cc4c(cc3F)c(=O)c(C(=O)O)cn4C3CC3)CC2)nn1)N[C@@H](Cc1cc(=O)[nH]c2ccccc12)C(=O)O`, for which the MIC in the test on Pseudomonas aeruginosa [4], with Staphylococcus aureus [5], in the test with Escherichia coli [6], in the test with Klebsiella pneumoniae and with Acinetobacter baumannii was 0.25 µg/mL (≈ 0.365 µM) each time.
For `O=C(/C=C/c1ccc(OCc2cn(Cc3cccc(Br)c3)nn2)cc1)c1ccc([N+](=O)[O-])cc1`, the MIC with Pseudomonas aeruginosa [8] and in the test on Escherichia coli [9] was 6.25 µg/mL (≈ 12 µM) each time.
For `COc1ccc(Cn2cc(COc3ccc(/C=C/C(=O)c4c(O)cc(C)oc4=O)cc3)nn2)cc1`, the MIC in the test on Pseudomonas aeruginosa [8] and with Escherichia coli [9] was 1.56 µg/mL (≈ 3.29 µM) throughout.
Regarding `O=C(/C=C/c1ccc(OCc2cn(Cc3ccc(Br)cc3)nn2)cc1)c1ccc([N+](=O)[O-])cc1`, the minimal inhibitory concentration (MIC) with Pseudomonas aeruginosa [8] and in the test on Escherichia coli [9] was 6.25 µg/mL (≈ 12 µM) in each case.
Take `NC(=O)N/N=C/c1ccccc1OCc1cn(-c2ccccc2)nn1`: the minimum inhibitory concentration (MIC) (in the test on Staphylococcus aureus [7]; in the test on Bacillus subtilis; in the test on Escherichia coli [1]; in [2]; with Pseudomonas aeruginosa [3]) was 25 µg/mL (≈ 74.3 µM) each time.
Regarding `O=C(Cn1cc(CN2CCN(c3cc4c(cc3F)c(=O)c(C(=O)O)cn4C3CC3)CC2)nn1)N[C@@H](CSc1ccccc1)C(=O)O`, the minimal inhibitory concentration (MIC) in the test with Pseudomonas aeruginosa [4], with Staphylococcus aureus [5], in the test with Escherichia coli [6], in the test with Klebsiella pneumoniae and in the test on Acinetobacter baumannii was 0.25 µg/mL (≈ 0.385 µM) throughout.
`C=CCOc1ccc(C[C@H](NC(=O)Cn2cc(CN3CCN(c4cc5c(cc4F)c(=O)c(C(=O)O)cn5C4CC4)CC3)nn2)C(=O)O)cc1`: the MIC in the test on Pseudomonas aeruginosa [4], in the test with Staphylococcus aureus [5], in the test with Escherichia coli [6], in the test with Klebsiella pneumoniae and with Acinetobacter baumannii was 0.25 µg/mL (≈ 0.371 µM) each time.
As to `NC(=S)N/N=C/c1ccccc1OCc1cn(Cc2ccc(Br)cc2)nn1`, the minimum inhibitory concentration (MIC) (in the test with Staphylococcus aureus [7]; with Bacillus subtilis; in the test with Escherichia coli [1]; in test [2]; in the test on Pseudomonas aeruginosa [3]) was 6.25 µg/mL (≈ 14 µM) in each case.
`NC(=O)N/N=C/c1ccccc1OCc1cn(-c2ccc(Br)cc2)nn1`: the minimum inhibitory concentration (MIC) (in the test on Staphylococcus aureus [7]; in the test on Bacillus subtilis; in the test on Escherichia coli [1]; in [2]; in the test on Pseudomonas aeruginosa [3]) was 25 µg/mL (≈ 60.2 µM) in each case.
Consider `COC(=O)[C@H](C)NC(=O)c1cc(=O)n(Cc2cn(C3O[C@H]4OC(C)(C)O[C@H]4[C@@H]4OC(C)(C)OC[C@@H]34)nn2)c2ccccc12` (stereo partly drawn), for which the MIC in the test with Escherichia coli [9] came to 9.75 µg/mL (≈ 16.3 µM).
